6 molecules from ChEMBL document CHEMBL5034045, “Novel Macrocyclic Peptidylarginine Deiminase Type 4 (PAD4) Inhibitors” (ACS Med Chem Lett, 2022) can be followed below.

The structures appear in SMILES notation.

The test deals with Protein-arginine deiminase type-4 (Homo sapiens, UniProt Q9UM07). As to the kind of experiment: Inhibition of human PAD4 using BAEE as substrate incubated for 30 mins by spectrophotometric based assay.
Chain of Protein-arginine deiminase type-4 (Q9UM07 whole entry): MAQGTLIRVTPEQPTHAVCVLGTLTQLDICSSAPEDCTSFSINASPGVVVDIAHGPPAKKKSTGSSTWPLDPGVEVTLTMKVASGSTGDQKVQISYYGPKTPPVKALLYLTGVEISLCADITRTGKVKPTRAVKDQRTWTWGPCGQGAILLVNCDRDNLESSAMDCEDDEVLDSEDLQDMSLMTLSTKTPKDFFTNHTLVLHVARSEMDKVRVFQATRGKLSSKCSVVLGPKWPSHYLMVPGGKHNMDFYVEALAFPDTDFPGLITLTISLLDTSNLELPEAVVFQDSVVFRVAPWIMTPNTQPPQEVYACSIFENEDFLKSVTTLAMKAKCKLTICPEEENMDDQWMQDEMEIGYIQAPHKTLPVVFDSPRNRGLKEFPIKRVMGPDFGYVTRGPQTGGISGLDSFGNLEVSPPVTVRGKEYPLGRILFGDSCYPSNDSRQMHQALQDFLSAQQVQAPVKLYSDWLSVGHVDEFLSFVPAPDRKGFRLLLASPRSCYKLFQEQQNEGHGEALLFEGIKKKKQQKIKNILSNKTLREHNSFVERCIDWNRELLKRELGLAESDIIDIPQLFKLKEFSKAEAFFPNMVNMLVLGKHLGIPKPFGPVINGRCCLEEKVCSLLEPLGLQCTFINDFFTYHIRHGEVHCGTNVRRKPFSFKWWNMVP
Turning to `[2H]C1([2H])[C@H](N)[C@@H]2CC[C@@H](C2)N1C(=O)c1cc(OC)c2c(c1)nc(-c1cc3ccc4nc3n1CCCCCc1ccccc1C(=O)NC4C)n2C` (stereo partly specified), the IC50 (commonly the concentration that inhibits the measured activity by half) was 5 nM.
For the molecule `CC1NC(=O)[C@@H]2C[C@@]2(F)CCCC(F)(F)Cn2c(-c3nc4cc(C(=O)N5CCC[C@@H](N)[C@H]5C)cc(F)c4n3C3CC3)cc3ccc1nc32` (stereo partly specified), half-maximal inhibition (IC50) was put at 5 nM.
`CC1NC(=O)[C@@H]2CC2CCCC(F)(F)Cn2c(-c3nc4cc(C(=O)N5CCC[C@@H](N)[C@H]5C)cc(Cl)c4n3C3CC3)cc3ccc1nc32` (stereo partly specified) showed an IC50 of 6 nM.
As to `COc1cc(C(=O)N2C[C@H](N)[C@@H]3CC[C@H]2C3)cc2nc(-c3cc4ccc5nc4n3CCCCCC3[C@H](C(=O)NC5C)C3(F)F)n(C)c12` (stereo partly specified), half-maximal inhibition (IC50) was put at 5 nM.
For `CC1NC(=O)c2cc3sccc3nc2CCCCCn2c(-c3nc4cc(C(=O)N5CCC[C@@H](N)[C@H]5C)cc(F)c4n3C3CC3)cc3ccc1nc32` (stereo partly specified), the IC50 amounted to 5 nM. This counts as single-digit nanomolar.
Molecule `Cc1ccc2c(n1)CCCCCn1c(-c3nc4cc(C(=O)N5C[C@H](N)[C@@H]6CC[C@H]5C6)cc(F)c4n3C3CC3)cc3ccc(nc31)C(C)NC2=O` (stereo partly specified) yielded an IC50 of 6 nM.
